The target of assay [1] is T1, Flk-1 (murine VEGFR-2) kinase domain (Mus musculus, UniProt P35918).
T1 construct: 7 nM Flk-1 (kinase domain)
In words: Flk-1 (murine VEGFR-2) biochemical assay, TR-FRET. The following applies: 10 μM ATP. How it is done: Flk-1 (Murine VEGFR-2) Biochemical Assay
This assay was performed in 96-well opaque plates (Costar 3915) in the TR-FRET format. Reaction conditions were as follows: 10 μM ATP, 25 nM poly GT-biotin, 2 nM Eu-labelled phospho-Tyr Ab (PY20 Perkin Elmer), 10 nM APC (Perkin Elmer), 7 nM Flk-1 (kinase domain), 1% DMSO, 50 mM HEPES pH 7.5, 10 mM MgCl2, 0.1 mM EDTA, 0.015% BRIJ, 0.1 mg/mL BSA, 0.1% mercapto-ethanol). Reaction was initiated upon addition of enzyme. Final reaction volume in each well was 100 μL. Plates were read at both 615 and […] on a Perkin Elmer Victor V Multilabel counter at about 1.5-2.0 hours after reaction initiation. Signal was calculated as a ratio: (665 nm/615 nm)*10000 for each well.
In general terms: In TR-FRET formats the signal depends on donor and acceptor labels being close together.

The target in assay [2] is T2, human recombinant c-Met intracellular kinase domain (Homo sapiens, UniProt P08581).
T2 construct: C-terminal HIS-tagged intracellular kinase domain (956 to 1390 amino acids) human recombinant c-Met; His tag (C)
T2 sequence (P08581 956-1390): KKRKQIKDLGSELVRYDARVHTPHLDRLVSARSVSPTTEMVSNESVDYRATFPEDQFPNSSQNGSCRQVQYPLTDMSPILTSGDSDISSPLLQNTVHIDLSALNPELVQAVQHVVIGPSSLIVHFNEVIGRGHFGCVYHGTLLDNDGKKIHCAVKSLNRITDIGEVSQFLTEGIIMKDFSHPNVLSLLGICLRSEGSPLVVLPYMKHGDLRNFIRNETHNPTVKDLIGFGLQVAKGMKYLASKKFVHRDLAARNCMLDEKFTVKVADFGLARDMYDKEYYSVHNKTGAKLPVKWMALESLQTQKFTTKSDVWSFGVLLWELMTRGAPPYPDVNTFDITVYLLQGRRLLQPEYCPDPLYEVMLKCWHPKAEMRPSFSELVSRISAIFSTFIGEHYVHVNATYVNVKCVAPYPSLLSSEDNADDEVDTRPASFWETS
In words: c-Met biochemical assay, ELISA format. The following applies: 0.2 μM ATP. The procedure:
An ELISA format was used for the c-Met biochemical assay. This assay uses the C-terminal HIS-tagged intracellular kinase domain (956 to 1390 amino acids) human recombinant c-Met in 96-well plates. 96-Well plates (Costar #9018) coated with poly(GluTyr) (Sigma # P0275) were used in this assay. The poly(GluTyr) substrate coated on the plate was phosphorylated in a 100 μL reaction volume with 2 nM c-Met protein in an assay buffer (50 mM HEPES pH7.0, 5 mM MnCl2, 0.1% BSA, 0.5 mM sodium orthovanadate, 0.1% β-mercaptoethanol), with 0.2 μM ATP (Sigma #A7699). […] After 25 minutes of incubation, the assay reaction was stopped with 25 μL of 100 mM EDTA. The plates were then washed, and wells were treated with 100 μL of 80 ng/mL anti-4G10-HRP antibody (Upstate #16-105) for 1 h. Plates were washed one final time, and were developed with 100 μL 3,3′,5,5′-TMB (Sigma #T8665), and quenched with 100 μL 1M HCl. Plates were read on a Victor 2 plate reader (Perkin Elmer) and IC50 analysis and calculation were performed using in-house software.

The next assay addresses T3, Bcr-Abl-wt kinase (Homo sapiens, UniProt P00519).
T3 sequence (P00519 242-493 limits assumed): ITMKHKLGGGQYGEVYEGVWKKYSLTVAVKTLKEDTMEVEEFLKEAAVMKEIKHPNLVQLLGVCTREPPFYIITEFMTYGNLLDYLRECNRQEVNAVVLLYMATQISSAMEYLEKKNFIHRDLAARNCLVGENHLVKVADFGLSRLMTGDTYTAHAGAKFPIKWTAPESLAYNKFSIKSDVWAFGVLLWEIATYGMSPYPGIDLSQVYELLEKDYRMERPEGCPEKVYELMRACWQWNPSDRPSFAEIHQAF
In words: Bcr-Abl wild type biochemical assay (MBP phosphorylation, 33P-ATP). The following applies: 50 μM ATP. How it is done: (§1) Bcr-Abl Wild Type and Mutant T315I Biochemical Assay
(§2) Bcr-Abl-wt or mutant Bcr-Abl-T3151 kinase (0.17 nM) was incubated with Myelin Basic Protein (MBP, 2 μM) in assay buffer consisting of 50 mM Tris pH 7.5, 10 mM MgCl2, 1 mM EGTA, 2 mM DTT, 50 μM ATP and 0.4 μCi of ^33P-ATP. Test compounds were added at varying concentrations (final DMSO conc=1%) prior to the addition of ATP. The reaction mixture was incubated for 1 hour at 32° C. The reaction was then stopped by addition of phosphoric acid (final conc=1%) and samples were transferred to filtermats and read in a betaplate reader. Inhibition of MBP phosphorylation by Bcr-Abl-wt or Bcr-Abl-T3151 was analyzed by using a 4 parameter fit and in-house software.

Assay [3] deals with T4, mutant Bcr-Abl-T3151 kinase (Homo sapiens, UniProt P00519, T315I).
T4 sequence (P00519 242-493 T315I limits assumed): T3 sequence (P00519 242-493 limits assumed) with T74I
In words: Bcr-Abl mutant T315I biochemical assay (MBP phosphorylation, 33P-ATP). The following applies: 50 μM ATP. The procedure: as §1, §2

A short description of assay [4]: In vitro tumor cell proliferation assay (Cell Titre-Glo), cell lines of interest. Type of assay: cell-based. The following applies: 72 hours, Cell Titer Glo; read-out: antiproliferative properties (IC50) in one or more cell lines of interest. An excerpt: In vitro Tumor Cell Proliferation Assay
Background: Cellular ATP, detected with luciferase, serves as a proxy for viable cell number.

Assay [5] has as its system K562 (human cell line expressing wild type Bcr-Abl). In words: Cell proliferation assay, K562. The conditions noted are these: K562, read-out: Cell proliferation IC50 (M).
For a further assay, the target named is BaF3-Abl(wt) (Homo sapiens, UniProt P00519). In words: Cell proliferation assay, BaF3-Abl(wt). The following applies: read-out: Cell proliferation IC50.
In the next assay the target is BaF3-Abl(T315I) (Homo sapiens, UniProt P00519, T315I, cells depend on it). In words: Cell proliferation assay, BaF3-Abl(T315I). The conditions noted are these: read-out: Cell proliferation IC50.
The next assay has as its target BaF3-Abl(E255K) (Homo sapiens, UniProt P00519, E255K, cells depend on it). In words: Cell proliferation assay, BaF3-Abl(E255K). The conditions noted are these: read-out: Cell proliferation IC50.
The next assay has as its target BaF3-Abl(M351T) (Homo sapiens, UniProt P00519, M351T, cells depend on it). In words: Cell proliferation assay, BaF3-Abl(M351T). The conditions noted are these: read-out: Cell proliferation IC50.
Another assay addresses BaF3-Abl(Y253F) (Homo sapiens, UniProt P00519, Y253F, cells depend on it). In words: Cell proliferation assay, BaF3-Abl(Y253F). The conditions noted are these: read-out: Cell proliferation IC50.
Assay [6] has as its system BaF3 parental cell line that does not express Bcr-Abl. In words: Cell proliferation assay, BaF3 parental cell line. The conditions noted are these: Mus musculus, BaF3, read-out: cell proliferation IC50.

Our source for the IC50 and GI50 values is patent US8101773B2, “Hydroxy methyl phenyl pyrazolyl urea compounds useful in the treatment of cancer” (Bayer Healthcare LLC, priority 2006, dated 2012).

Molecules are shown by their SMILES. Positions count from the first letter of the chain named.

T1 sequence (P35918 832-1160 limits assumed): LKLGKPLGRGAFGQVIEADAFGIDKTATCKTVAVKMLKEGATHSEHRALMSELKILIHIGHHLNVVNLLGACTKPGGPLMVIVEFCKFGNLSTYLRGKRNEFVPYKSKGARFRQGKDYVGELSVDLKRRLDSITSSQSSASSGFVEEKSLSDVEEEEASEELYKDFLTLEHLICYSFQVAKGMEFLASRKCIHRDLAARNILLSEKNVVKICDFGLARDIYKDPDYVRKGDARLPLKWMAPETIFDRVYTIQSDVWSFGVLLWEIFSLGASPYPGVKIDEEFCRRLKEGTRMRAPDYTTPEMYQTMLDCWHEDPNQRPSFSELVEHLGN

`CNC(=O)c1cc(Oc2ccc(NC(=O)Nc3cc(C(C)(C)C)nn3-c3cccc(CO)c3)c(F)c2)ccn1` [Example 1, 4-{4-[({3-tert-Butyl-1-[3-(hydroxymethyl)phenyl]-1H-pyrazol-5-yl}carbamoyl)amino]-3-fluorophenoxy}-N-methylpyridine-2-carboxamide]: the IC50 in assay [1] is less than 500 nM; in assay [2], less than 500 nM; against Bcr-Abl-wt kinase, less than 500 nM; in [3], less than 500 nM; in assay [4], less than 5000 nM; in [5], 1.58e-09 M. The IC50 in [6] is greater than 3000 nM. For the same compound, the GI50 on BaF3-Abl(wt) was found to be 3.84 nM; at BaF3-Abl(T315I), 34.1 nM; at BaF3-Abl(E255K) it was 50.3 nM; on BaF3-Abl(M351T) it was 8.11 nM; at BaF3-Abl(Y253F), 5.64 nM.
